Results as given in patent US12005055B2, “Methods for shrinking pituitary tumors” (Corcept Therapeutics Incorporated, priority 2018, dated 2024).
Entries after “also recorded” stand apart in the source; their conditions may differ.

How the values were obtained:
pituitary tumors = conditions: cited from earlier work
glucocorticoid receptor = glucocorticoid receptor (Homo sapiens, UniProt P04150); conditions: HepG2 cells; cited from earlier work
progesterone receptor = progesterone receptor (Homo sapiens, UniProt P06401); conditions: cited from earlier work
[1] = Clinical studies of relacorilant in patients with endogenous hypercortisolism; format: in vivo, human
Text: The following examples show the results of relacorilant administration to patients suffering from pituitary tumors.

androgen receptor = androgen receptor (Homo sapiens, UniProt P10275); conditions: cited from earlier work
[2] = target: T1, mineralocorticoid receptor (Homo sapiens, UniProt P08235); conditions: cited from earlier work
T1 sequence (P08235 1-984): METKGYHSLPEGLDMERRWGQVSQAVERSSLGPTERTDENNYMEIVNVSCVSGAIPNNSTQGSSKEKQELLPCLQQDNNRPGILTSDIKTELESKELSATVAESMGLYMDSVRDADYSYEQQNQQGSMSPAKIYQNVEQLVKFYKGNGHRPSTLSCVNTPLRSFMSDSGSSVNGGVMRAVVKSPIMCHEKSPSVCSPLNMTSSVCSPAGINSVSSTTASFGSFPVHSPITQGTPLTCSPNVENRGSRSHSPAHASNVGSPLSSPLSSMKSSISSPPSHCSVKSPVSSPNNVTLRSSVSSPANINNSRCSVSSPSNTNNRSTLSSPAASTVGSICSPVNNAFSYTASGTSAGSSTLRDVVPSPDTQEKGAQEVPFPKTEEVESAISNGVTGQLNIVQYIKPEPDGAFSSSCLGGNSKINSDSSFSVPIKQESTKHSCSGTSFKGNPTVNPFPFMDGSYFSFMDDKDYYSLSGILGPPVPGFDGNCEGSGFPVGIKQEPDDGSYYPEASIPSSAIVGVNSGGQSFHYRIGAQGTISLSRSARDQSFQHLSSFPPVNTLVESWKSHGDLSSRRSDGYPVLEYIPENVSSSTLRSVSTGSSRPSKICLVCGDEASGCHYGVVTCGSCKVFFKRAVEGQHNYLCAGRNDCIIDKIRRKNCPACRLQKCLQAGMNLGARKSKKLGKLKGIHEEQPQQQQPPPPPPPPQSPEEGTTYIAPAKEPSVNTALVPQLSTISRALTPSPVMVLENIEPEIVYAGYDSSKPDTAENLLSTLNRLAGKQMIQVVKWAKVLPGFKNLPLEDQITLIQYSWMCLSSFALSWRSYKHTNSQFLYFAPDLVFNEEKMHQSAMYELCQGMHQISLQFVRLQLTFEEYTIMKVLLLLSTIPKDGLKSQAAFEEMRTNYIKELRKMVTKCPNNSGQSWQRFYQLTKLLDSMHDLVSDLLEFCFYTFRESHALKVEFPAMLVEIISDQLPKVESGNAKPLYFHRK

pituitary macroadenoma = assay: MRI measurement of pituitary tumor size in Cushing's Disease patients given relacorilant; format: in vivo, human
Text: The relacorilant administration disclosed herein can reduce tumor size and confer beneficial clinical outcomes to patients having a pituitary tumor. Methods for measuring the size of a pituitary tumor are well-known to skilled artisans in the field. For example, magnetic resonance imaging (MRI) and other imaging methods may be used to detect tumor shrinkage. Other methods for determining the effect of cancer therapy on tumor size are also known in the art, e.g., as described in the Response Evaluation Criteria in Solid Tumors (“RECIST”) guidelines, discussed, for example, in Chalian et al., Radiographics 31(7):2093-2105 (2011), and available at “protocolDevelopment/docs/recist_guideline.pdf” of the website “ctep.cancer.gov”.
Measuring tumor size is typically achieved by imaging-based techniques, including magnetic resonance imaging (MRI), computed tomography (CT), positron-emission tomography (PET) and other techniques. For example, MRI, CT, and PET scans can provide accurate and reliable anatomic information not only about tumor shrinkage or growth but also progression of disease by identifying either growth in existing lesions or the development of new lesions or tumor metastasis. Tumor size, including a reduction in tumor size, may be determined by measuring a linear dimension of a tumor (measuring may be accomplished, for example, by counting pixels on a digital image, by measuring a distance on a printed image or from an image projected onto a screen); by measuring two different linear dimensions of a tumor; by measuring three, or more, different linear dimensions of a tumor; by calculating (or estimating, based on measurements) a cross-sectional area of a tumor; by calculating (or estimating, based on measurements) a volume of a tumor; or by other means known in the art. […]

estrogen receptor = conditions: cited from earlier work

Chain of progesterone receptor (P06401 whole entry, species assumed): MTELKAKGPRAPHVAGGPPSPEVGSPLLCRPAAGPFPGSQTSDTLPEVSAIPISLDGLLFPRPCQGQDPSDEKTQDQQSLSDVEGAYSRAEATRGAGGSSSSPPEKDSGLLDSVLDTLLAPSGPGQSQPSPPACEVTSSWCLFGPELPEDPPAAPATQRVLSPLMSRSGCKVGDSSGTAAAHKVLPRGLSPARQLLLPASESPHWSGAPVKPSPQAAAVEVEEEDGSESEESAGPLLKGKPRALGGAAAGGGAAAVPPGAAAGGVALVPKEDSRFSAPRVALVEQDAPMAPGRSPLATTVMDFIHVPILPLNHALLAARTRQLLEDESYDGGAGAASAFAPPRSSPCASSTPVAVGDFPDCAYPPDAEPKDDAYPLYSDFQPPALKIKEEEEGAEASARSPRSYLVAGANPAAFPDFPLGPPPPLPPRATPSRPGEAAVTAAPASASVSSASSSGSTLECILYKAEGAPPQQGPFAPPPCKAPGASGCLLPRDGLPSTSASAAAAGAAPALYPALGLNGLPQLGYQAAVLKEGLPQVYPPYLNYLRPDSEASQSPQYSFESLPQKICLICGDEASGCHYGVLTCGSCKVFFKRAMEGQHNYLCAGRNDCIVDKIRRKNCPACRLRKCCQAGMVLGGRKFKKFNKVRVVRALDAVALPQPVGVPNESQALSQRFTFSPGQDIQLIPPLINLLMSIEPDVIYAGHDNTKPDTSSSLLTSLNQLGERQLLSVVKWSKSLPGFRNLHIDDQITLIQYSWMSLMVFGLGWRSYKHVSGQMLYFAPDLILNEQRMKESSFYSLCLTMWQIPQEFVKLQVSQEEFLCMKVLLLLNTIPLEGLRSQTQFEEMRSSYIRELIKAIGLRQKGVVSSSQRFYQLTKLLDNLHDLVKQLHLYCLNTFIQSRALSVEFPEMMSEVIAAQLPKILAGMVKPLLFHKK
Chain of glucocorticoid receptor (P04150 whole entry): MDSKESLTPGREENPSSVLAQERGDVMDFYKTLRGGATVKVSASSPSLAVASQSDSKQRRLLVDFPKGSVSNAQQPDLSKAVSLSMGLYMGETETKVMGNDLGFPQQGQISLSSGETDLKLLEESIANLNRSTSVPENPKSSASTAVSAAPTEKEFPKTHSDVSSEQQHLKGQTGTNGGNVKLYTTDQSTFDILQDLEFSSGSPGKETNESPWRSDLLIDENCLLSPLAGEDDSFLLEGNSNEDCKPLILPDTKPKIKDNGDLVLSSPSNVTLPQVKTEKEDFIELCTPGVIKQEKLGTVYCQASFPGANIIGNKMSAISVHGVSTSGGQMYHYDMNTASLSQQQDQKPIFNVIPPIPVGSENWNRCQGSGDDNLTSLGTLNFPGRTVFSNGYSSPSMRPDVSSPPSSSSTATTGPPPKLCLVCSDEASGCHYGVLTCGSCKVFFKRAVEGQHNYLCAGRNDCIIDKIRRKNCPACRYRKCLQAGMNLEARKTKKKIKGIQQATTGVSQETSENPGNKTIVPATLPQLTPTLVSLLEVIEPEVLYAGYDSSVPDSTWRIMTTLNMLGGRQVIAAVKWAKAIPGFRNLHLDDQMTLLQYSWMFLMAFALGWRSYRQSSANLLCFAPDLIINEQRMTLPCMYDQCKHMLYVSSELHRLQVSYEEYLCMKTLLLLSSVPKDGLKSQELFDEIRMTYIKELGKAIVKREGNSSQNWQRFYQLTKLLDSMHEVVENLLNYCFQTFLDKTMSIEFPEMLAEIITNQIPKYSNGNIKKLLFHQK
Chain of androgen receptor (P10275 whole entry, species assumed): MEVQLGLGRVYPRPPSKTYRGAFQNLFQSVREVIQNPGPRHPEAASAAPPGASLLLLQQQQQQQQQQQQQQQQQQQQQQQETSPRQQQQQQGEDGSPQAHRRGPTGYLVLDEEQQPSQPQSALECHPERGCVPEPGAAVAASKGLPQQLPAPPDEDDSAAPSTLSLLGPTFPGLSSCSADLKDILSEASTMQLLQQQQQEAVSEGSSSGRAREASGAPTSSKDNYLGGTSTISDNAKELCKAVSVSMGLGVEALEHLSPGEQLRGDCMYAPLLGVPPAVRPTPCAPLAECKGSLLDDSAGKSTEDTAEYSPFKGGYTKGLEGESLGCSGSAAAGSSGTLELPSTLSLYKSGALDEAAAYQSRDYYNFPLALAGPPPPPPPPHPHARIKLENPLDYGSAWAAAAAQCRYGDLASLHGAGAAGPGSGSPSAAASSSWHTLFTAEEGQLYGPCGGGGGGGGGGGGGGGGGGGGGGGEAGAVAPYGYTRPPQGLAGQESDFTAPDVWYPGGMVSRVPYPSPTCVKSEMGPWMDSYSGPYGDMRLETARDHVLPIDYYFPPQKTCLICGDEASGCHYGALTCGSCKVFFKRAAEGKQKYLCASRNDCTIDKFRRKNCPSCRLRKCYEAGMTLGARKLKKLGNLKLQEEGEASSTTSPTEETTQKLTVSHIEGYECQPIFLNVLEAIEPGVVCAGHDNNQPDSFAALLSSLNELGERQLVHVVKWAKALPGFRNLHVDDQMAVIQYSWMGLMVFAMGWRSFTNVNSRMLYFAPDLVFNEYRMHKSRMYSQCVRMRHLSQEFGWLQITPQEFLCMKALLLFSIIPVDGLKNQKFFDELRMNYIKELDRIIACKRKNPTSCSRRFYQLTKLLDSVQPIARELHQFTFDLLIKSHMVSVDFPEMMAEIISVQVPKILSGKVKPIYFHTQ

## CC#C[C@]1(O)CC[C@H]2[C@@H]3CCC4=CC(=O)CCC4=C3[C@@H](c3ccc(N(C)C)cc3)C[C@@]21C [mifepristone]
Pituitary tumors; 17 Cushing's Disease patients with visible tumors (10 macroadenomas), mifepristone for 24 weeks
  tumor regression (MRI): no regression
Pituitary tumors; 17 patients, in one patient the tumor increased in size with 10 weeks of mifepristone
  MRI images of tumor over treatment: stable in all but one patient
Glucocorticoid receptor
  effect on tyrosine aminotransferase (TAT) activity: decreases

## Cn1cc(S(=O)(=O)N2CCC3=Cc4c(cnn4-c4ccc(F)cc4)C[C@]3(C(=O)c3cc(C(F)(F)F)ccn3)C2)cn1 [relacorilant, (R)-(1-(4-fluorophenyl)-6-((1-methyl-1H-pyrazol-4-yl)sulfonyl)-4,4a,5,6,7,8-hexahydro-1H-pyrazolo[3,4-g]isoquinolin-4a-yl)(4-(trifluoromethyl)pyridin-2-yl)methanone]
Progesterone receptor
  effect on progesterone receptor: does not significantly affect
[1]; clinical studies
  tolerability: well tolerated
[1]; patients with endogenous hypercortisolism
  glycemic and hypertension control and other manifestations of cortisol excess: significantly improved
Androgen receptor
  effect on androgen receptor: does not significantly affect
[2]
  effect on mineralocorticoid receptor: does not significantly affect
Pituitary macroadenoma; Example 2 patient, following three months of relacorilant administration
  tumor volume shrinkage: ~40%
Pituitary macroadenoma; Example 2 patient, pre-treatment measure 14,300 mm^3
  multiplication of the three post-treatment measurements (indication of tumor volume): 8,778 mm^3
Pituitary macroadenoma; two Cushing's Disease patients (both macroadenomas), three months of daily relacorilant
  effect on pituitary tumor size: significant pituitary tumor shrinkage; also recorded: shrunk; also recorded: effective to reduce the size of pituitary tumors
Estrogen receptor
  effect on estrogen receptor: does not significantly affect
